Source: US4185156A, “Peptides and acid addition salts thereof” (Zaidan Hojin Biseibutsu Kagaku Kenkyu Kai, priority 1977, dated 1980)

Legend:
aminopeptidase B [1] = target: T1, aminopeptidase B (Rattus norvegicus, UniProt O09175); assay: Inhibitory activity against aminopeptidase B (modified Hopsu et al. method, arginine-β-naphthylamide substrate); format: biochemical; settings: pH 7.0, 37° C., 30-minute reaction
T1 construct: an aminopeptidase B solution purified by using Sephadex G-100; from tissue; rat liver in the cited Hopsu et al. method (own knowledge)
T1 sequence (O09175 1-650): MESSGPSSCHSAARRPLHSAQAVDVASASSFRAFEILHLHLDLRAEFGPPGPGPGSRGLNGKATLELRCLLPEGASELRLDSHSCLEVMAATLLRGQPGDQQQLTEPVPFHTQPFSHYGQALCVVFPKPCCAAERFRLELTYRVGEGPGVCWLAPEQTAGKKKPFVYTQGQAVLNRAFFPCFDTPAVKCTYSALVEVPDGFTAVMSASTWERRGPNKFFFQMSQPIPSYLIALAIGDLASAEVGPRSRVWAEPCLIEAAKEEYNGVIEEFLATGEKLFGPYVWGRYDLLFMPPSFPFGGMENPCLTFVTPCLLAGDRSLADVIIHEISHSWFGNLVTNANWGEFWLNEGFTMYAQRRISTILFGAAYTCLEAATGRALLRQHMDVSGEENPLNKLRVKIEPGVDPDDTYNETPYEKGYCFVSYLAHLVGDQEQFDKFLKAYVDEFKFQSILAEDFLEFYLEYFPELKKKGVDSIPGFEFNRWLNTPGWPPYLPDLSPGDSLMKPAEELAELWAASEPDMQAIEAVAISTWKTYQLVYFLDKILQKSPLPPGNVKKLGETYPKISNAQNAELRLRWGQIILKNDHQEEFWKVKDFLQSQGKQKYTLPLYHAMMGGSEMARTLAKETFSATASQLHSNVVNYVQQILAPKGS
Method: A modified version of the Hopsu et al. method (V. K. Hopsu, K. K. Makinen and G. G. Glenner, Archives of Biochemistry and Biophysics 114, 557 (1966)) was used for determining the aminopeptidase B activity. A mixed solution (pH 7.0) prepared by adding 1.0 ml of 0.1 M tris-hydrochloride buffer and 0.7 ml of a solution containing the specimen to 0.3 ml of 0.1 mM arginine-β-naphthylamide was heated at 37° C. for 3 minutes and then added with 0.2 ml of an aminopeptidase B solution purified by using Sephadex G-100 (trademark for gelfiltrant composed of dextran derivative, manufactured by Pharmacia Fine Chemicals Inc.) according to the enzyme purification method of Hopsu et al. After 30-minute reaction at 37° C., 0.6 ml of 1.0 M acetate buffer (pH 4.2) containing Garnet GBC (o-aminoazotoluene diazonium salt) in concentration of 1.0 mg/ml and Tween 20 in concentration of 1.0% was added, and allowing the mixture to stand at room temperature for 15 minutes, absorbance (a) at 530 nm was measured. There was also measured absorbance (b) of the control using the buffer solution not containing the specimen. The aminopeptidase B inhibition percent was calculated from (b-a)/b×100.
Inhibition percentages at various specimen concentrations were measured according to the above-said testing method, and 50% inhibition (ID50) was induced therefrom.

leucine aminopeptidase = settings: prior art; cited from earlier work
aminopeptidase B [2] = target: T1, aminopeptidase B; settings: prior art; cited from earlier work
Bleomycin hydrolase = target: T2, Bleomycin hydrolase (Homo sapiens, UniProt Q13867); settings: prior art; cited from earlier work
T2 sequence (Q13867 1-455): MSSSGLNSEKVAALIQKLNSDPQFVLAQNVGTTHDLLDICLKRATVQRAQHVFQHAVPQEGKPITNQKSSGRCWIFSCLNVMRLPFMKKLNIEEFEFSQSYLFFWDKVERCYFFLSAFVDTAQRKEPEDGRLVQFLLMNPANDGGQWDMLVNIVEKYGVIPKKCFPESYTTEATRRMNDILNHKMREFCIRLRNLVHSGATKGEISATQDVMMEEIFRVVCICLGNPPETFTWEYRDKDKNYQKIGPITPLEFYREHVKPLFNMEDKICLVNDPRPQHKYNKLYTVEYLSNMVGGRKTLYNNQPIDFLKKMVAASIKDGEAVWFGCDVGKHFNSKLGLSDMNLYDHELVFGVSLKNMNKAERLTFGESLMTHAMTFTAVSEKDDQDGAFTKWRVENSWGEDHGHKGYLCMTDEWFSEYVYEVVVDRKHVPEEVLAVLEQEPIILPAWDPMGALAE

[3] = tested on: lymphocytes from the peripheral blood of healthy canines; assay: Lymphocyte blastoid transformation with phytohemagglutinin (PHA), 3H-Thymidine incorporation; format: cell-based, canines (Beagle, Male); settings: for 3H-Td.eta. incorporation (mean cpm ± SE): PHA + compound, canine lymphocytes, 72 hrs culture; for effect on lymphocyte blastoid formation with PHA (in words): summary of table 2
Method: Lymphocytes were prepared asptically from the peripheral blood of healthy canines (Beagle, Male) by gradient centrifugation of ficollsodium metriazoate. The lymphocytes (1×10^6 cells/ml) were cultured in RPMI-1640 medium with 10% fetal calf serum, antibiotic (Kanamycin 60μg/ml) and 15μg of phytohemagglutinin(PHA) at 37° C. in a humidified atomosphere of 5% CO2 and 95% air. After an incubation for 48 hrs, 2μCi of ^3 H-Thymidine was added to each dish, and the culture was continued for further 24 hrs to determine DNA synthesis. DNA synthesis was measured as ^3 H-Thymidine incorporation into acid in soluble materials.

In the case of CC(=O)O.CC(=O)O.Cc1ccc(CC(N)C(O)C(=O)NC(CCCN=C(N)N)C(=O)O)cc1 (racemic) [Example 3, (2RS, 3RS)-3-amino-2-hydroxy-4-p-methylphenylbutanoyl-(S)-arginine diacetate], the “ID50 (50% inhibition of aminopeptidase B)” value (aminopeptidase B [1]) was 0.013 μ g/ml.
In the case of Cl.Cl.N=C(N)NCCC[C@H](NC(=O)[C@H](O)[C@H](N)Cc1ccccc1Cl)C(=O)O (racemic) [Example 4, (2RS, 3RS)-3-amino-2-hydroxy-4-o-chlorophenylbutanoyl-(S)-arginine dihydrochloride], the “ID50 (50% inhibition of aminopeptidase B)” value (aminopeptidase B [1]) was 0.14 μ g/ml.
For CC(C)C[C@H](NC(=O)[C@@H](O)[C@H](N)Cc1ccccc1)C(=O)O [Bestatin, (2S, 3R)-3-amino-2-hydroxy-4-phenylbutanoyl-(S)-leucine, reference compound], the “inhibitory activity against leucine aminopeptidase (in words)” value (leucine aminopeptidase) is given as “strong inhibitory activity”, the “inhibitory activity against aminopeptidase B (in words)” value (aminopeptidase B [2]) is given as “strong inhibitory activity” and the IC50 (aminopeptidase B [1]; read-out: ID50 (50% inhibition of aminopeptidase B) (converted)) is given as 324 nM. The “inhibitory activity against Bleomycin hydrolase (in words)” value (Bleomycin hydrolase) was “strong inhibitory activity”, the “3H-Td.eta. incorporation (mean cpm ± SE)” value ([3]; dose 0.1 μg) was 19450 ± 189 cpm and the “3H-Td.eta. incorporation (mean cpm ± SE)” value ([3]; dose 1.0 μg) was 16173 ± 631 cpm. The “3H-Td.eta. incorporation (mean cpm ± SE)” value ([3]; dose 10.0 μg) was 18683 ± 71 cpm and the “effect on lymphocyte blastoid formation with PHA (in words)” value (“effect on lymphocyte blastoid formation” for short) [3] was “enhance the lymphocyte blastoid formation with PHA”.
With Cl.N=C(N)NCCC[C@H](NC(=O)[C@@H](O)[C@H](N)Cc1ccccc1)C(=O)O [Example 1, (2S, 3R)-3-amino-2-hydroxy-4-phenylbutanoyl-(S)-arginine hydrochloride] the “ID50 (50% inhibition of aminopeptidase B)” value (aminopeptidase B [1]) was 0.03 μ g/ml, the “3H-Td.eta. incorporation (mean cpm ± SE)” value ([3]; dose 0.1 μg) was 17278 ± 400 cpm and the “3H-Td.eta. incorporation (mean cpm ± SE)” value ([3]; dose 1.0 μg) was 19940 ± 1412 cpm. For the same compound, the “3H-Td.eta. incorporation (mean cpm ± SE)” value ([3]; dose 10.0 μg) was 19050 ± 1988 cpm and the “effect on lymphocyte blastoid formation” value [3] was “enhance the lymphocyte blastoid formation with PHA”.
For N=C(N)NCCC[C@H](NC(=O)[C@@H](O)[C@H](N)Cc1ccc(O)cc1)C(=O)O [Example 2, (2S, 3R)-3-amino-2-hydroxy-4-p-hydroxyphenylbutanoyl-(S)-arginine diacetate], the “ID50 (50% inhibition of aminopeptidase B)” value (aminopeptidase B [1]) was 0.005 μ g/ml, the “3H-Td.eta. incorporation (mean cpm ± SE)” value ([3]; dose 0.1 μg) was 23113 ± 1236 cpm and the “3H-Td.eta. incorporation (mean cpm ± SE)” value ([3]; dose 1.0 μg) was 21357 ± 578 cpm. The “3H-Td.eta. incorporation (mean cpm ± SE)” value ([3]; dose 10.0 μg) was 20397 ± 304 cpm and the “effect on lymphocyte blastoid formation” value [3] was “enhance the lymphocyte blastoid formation with PHA”.
